According to patent US10611740B2, “Aryl dihydro-2H-benzo[b][1,4]oxazine sulfonamide and related compounds for use as agonists of RORγ and the treatment of disease” (Lycera Corporation, priority 2015, dated 2020):

Key:
[1] = target: T1, RORγ-LBD (Homo sapiens, UniProt P51449); assay: RORγ-Ligand Binding Domain (LBD) TR-FRET Assay; assay type: biochemical;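 as to TR-FRET Assay Max Response: 665/615 nm ratio relative to signal without ursolic acid or compound set at 100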
T1 construct: made in house; host or cells: SF9 cells (baculovirus)
T1 sequence (P51449 269-508 limits assumed): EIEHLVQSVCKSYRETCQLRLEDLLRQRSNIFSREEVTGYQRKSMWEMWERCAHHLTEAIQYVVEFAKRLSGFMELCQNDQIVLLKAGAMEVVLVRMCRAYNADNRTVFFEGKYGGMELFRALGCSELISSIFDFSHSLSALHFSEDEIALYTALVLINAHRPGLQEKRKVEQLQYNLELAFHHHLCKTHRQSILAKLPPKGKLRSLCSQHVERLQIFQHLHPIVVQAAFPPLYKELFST
Method in brief: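 This TR-FRET coactivator assay pairs baculovirus-expressed His-RORγ-LBD (~3 nM final) with biotin-SRC1 LXXLL peptide at 200 nM final in pH 7.0 Tris/KCl/EDTA/DTT/BSA buffer.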

[2] = target: T2, Gal4-RORγ-LBD (Homo sapiens, UniProt P51449); assay: Gal4-RORγ Luciferase Reporter Assay in HEK-293T Cells; assay type: cell-based; details: HEK-293 cells, luciferase reporter, with 2 μM ursolic acid
T2 construct: expressed in transfected cells; host or cells: HEK-293 cells (pcDNA3.1neo plasmid)
T2 sequence (P51449 269-508 limits assumed): T1 sequence (P51449 269-508 limits assumed)
Method in brief: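 Luminescence read-out (One-Glo, 10 min RT) after overnight compound exposure at 37 °C in HEK-293 cells carrying Gal4-RORγ-LBD plus a Gal4-luciferase reporter, in the presence of 2 μM ursolic acid. Max Response is the upper plateau from a 4-parameter logistic fit, normalized to untreated signal = 100.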

Row | SMILES | EC50 [1] | TR-FRET Assay Max Response [1] | EC50 [2] | Gal4-RORγ Assay Max Response [2]
1 | CC(C)(O)C(=O)NCC[C@H]1CN(S(=O)(=O)c2cccc(C(F)(F)F)c2)c2cc(-c3cc(F)ccc3F)ccc2O1 [Compound 29, (S)—N-(2-(6-(2,5-difluorophenyl)-4-((3-(trifluoromethyl)phenyl)sulfonyl)-3,4-dihydro-2H-benzo[b][1,4]oxazin-2-yl)ethyl)-2-hydroxy-2-methylpropanamide] | < 500 nM | **** (The symbol “****” indicates a value greater than 200) | < 500 nM | ** (The symbol “**” indicates a value in the range of greater than 90 to 150)
2 | CN(C)c1cccc(-c2ccc3c(c2)N(S(=O)(=O)c2cccc(C(F)(F)F)c2)C[C@H](CCNC(=O)C(C)(C)O)O3)n1 [Compound 30A, (S)-N-(2-(6-(6-(dimethylamino)-pyridin-2-yl)-4-((3-(trifluoro-methyl)phenyl)sulfonyl)-3,4-dihydro-2H-benzo[b][1,4]-oxazin-2-yl)ethyl)-2-hydroxy-2-methylpropanamide] | < 500 nM | **** (The symbol “****” indicates a value greater than 200) | < 500 nM | * (The symbol “*” indicates a value in the range of 25 to 90)
3 | O=C1CC(C(=O)NC[C@H]2CN(S(=O)(=O)c3cccc(C(F)(F)F)c3)c3cc(-c4cc(F)ccc4F)ccc3O2)C1 [Compound 30AA, (S)-N-((6-(2,5-difluorophenyl)-4-((3-(trifluoromethyl)phenyl)-sulfonyl)-3,4-dihydro-2H-benzo[b][1,4]oxazin-2-yl)methyl)-3-oxocyclobutane-1-carboxamide] | < 500 nM | **** (The symbol “****” indicates a value greater than 200) | < 500 nM | * (The symbol “*” indicates a value in the range of 25 to 90)
4 | O=C(CC1CC1)NC[C@H]1CN(S(=O)(=O)c2cccc(C(F)(F)F)c2)c2cc(-c3cc(F)ccc3F)ccc2O1 [Compound 30AB, (S)-2-cyclopropyl-N-((6-(2,5-difluorophenyl)-4-((3-(trifluoromethyl)phenyl)sulfonyl)-3,4-dihydro-2H-benzo[b][1,4]oxazin-2-yl)methyl)acetamide] | < 500 nM | **** (The symbol “****” indicates a value greater than 200) | < 500 nM | * (The symbol “*” indicates a value in the range of 25 to 90)
5 | O=C(NC[C@H]1CN(S(=O)(=O)c2cccc(C(F)(F)F)c2)c2cc(-c3cc(F)ccc3F)ccc2O1)c1cn[nH]c1 [Compound 30AC, (S)-N-((6-(2,5-difluorophenyl)-4-((3-(trifluoromethyl)phenyl)-sulfonyl)-3,4-dihydro-2H-benzo[b][1,4]oxazin-2-yl)methyl)-1H-pyrazole-4-carboxamide] | < 500 nM | **** (The symbol “****” indicates a value greater than 200) | 500 to 5000 nM | * (The symbol “*” indicates a value in the range of 25 to 90)
6 | O=C(NC[C@H]1CN(S(=O)(=O)c2cccc(C(F)(F)F)c2)c2cc(-c3cc(F)ccc3F)ccc2O1)c1cc[nH]n1 [Compound 30AD, (S)-N-((6-(2,5-difluorophenyl)-4-((3-(trifluoromethyl)phenyl)-sulfonyl)-3,4-dihydro-2H-benzo[b][1,4]oxazin-2-yl)methyl)-1H-pyrazole-3-carboxamide] | < 500 nM | **** (The symbol “****” indicates a value greater than 200) | < 500 nM | * (The symbol “*” indicates a value in the range of 25 to 90)
7 | C[C@H](O)C(=O)NC[C@H]1CN(S(=O)(=O)c2cccc(C(F)(F)F)c2)c2cc(-c3cc(F)ccc3F)ccc2O1 [Compound 30AE, (S)-N-(((S)-6-(2,5-difluoro-phenyl)-4-((3-(trifluoromethyl)-phenyl)sulfonyl)-3,4-dihydro-2H-benzo[b][1,4]oxazin-2-yl)-methyl)-2-hydroxypropanamide] | < 500 nM | *** (The symbol “***” indicates a value in the range of greater than 150 to 200) | < 500 nM | ** (The symbol “**” indicates a value in the range of greater than 90 to 150)
8 | C[C@@H](O)C(=O)NC[C@H]1CN(S(=O)(=O)c2cccc(C(F)(F)F)c2)c2cc(-c3cc(F)ccc3F)ccc2O1 [Compound 30AF, (R)-N-(((S)-6-(2,5-difluoro-phenyl)-4-((3-(trifluoromethyl)-phenyl)sulfonyl)-3,4-dihydro-2H-benzo[b][1,4]oxazin-2-yl)-methyl)-2-hydroxypropanamide] | < 500 nM | *** (The symbol “***” indicates a value in the range of greater than 150 to 200) | < 500 nM | ** (The symbol “**” indicates a value in the range of greater than 90 to 150)
9 | O=C(NC[C@H]1CN(S(=O)(=O)c2cccc(C(F)(F)F)c2)c2cc(-c3cc(F)ccc3F)ccc2O1)C1(O)CC1 [Compound 30AG, (S)-N-((6-(2,5-difluorophenyl)-4-((3-(trifluoromethyl)phenyl)-sulfonyl)-3,4-dihydro-2H-benzo[b][1,4]oxazin-2-yl)methyl)-1-hydroxycyclo-propane-1-carboxamide] | < 500 nM | *** (The symbol “***” indicates a value in the range of greater than 150 to 200) | < 500 nM | ** (The symbol “**” indicates a value in the range of greater than 90 to 150)
10 | Cn1cc(C(=O)NC[C@H]2CN(S(=O)(=O)c3cccc(C(F)(F)F)c3)c3cc(-c4cc(F)ccc4F)ccc3O2)cn1 [Compound 30AH, (S)-N-((6-(2,5-difluorophenyl)-4-((3-(trifluoromethyl)phenyl)-sulfonyl)-3,4-dihydro-2H-benzo[b][1,4]oxazin-2-yl)methyl)-1-methyl-1H-pyrazole-4-carboxamide] | < 500 nM | *** (The symbol “***” indicates a value in the range of greater than 150 to 200) | < 500 nM | ** (The symbol “**” indicates a value in the range of greater than 90 to 150)
11 | Cn1ccc(C(=O)NC[C@H]2CN(S(=O)(=O)c3cccc(C(F)(F)F)c3)c3cc(-c4cc(F)ccc4F)ccc3O2)n1 [Compound 30AI, (S)-N-((6-(2,5-difluorophenyl)-4-((3-(trifluoromethyl)phenyl)-sulfonyl)-3,4-dihydro-2H-benzo[b][1,4]oxazin-2-yl)methyl)-1-methyl-1H-pyrazole-3-carboxamide] | < 500 nM | *** (The symbol “***” indicates a value in the range of greater than 150 to 200) | < 500 nM | ** (The symbol “**” indicates a value in the range of greater than 90 to 150)
12 | O=C(NC[C@H]1CN(S(=O)(=O)c2cccc(C(F)(F)F)c2)c2cc(-c3cc(F)ccc3F)ccc2O1)c1cocn1 [Compound 30AJ, (S)-N-((6-(2,5-difluorophenyl)-4-((3-(trifluoromethyl)phenyl)-sulfonyl)-3,4-dihydro-2H-benzo[b][1,4]oxazin-2-yl)methyl)oxazole-4-carboxamide] | < 500 nM | **** (The symbol “****” indicates a value greater than 200) | < 500 nM | ** (The symbol “**” indicates a value in the range of greater than 90 to 150)
